Results from patent publication US10765693B2, “Polymorphic compounds and uses thereof” (Astrocyte Pharmaceuticals, Inc., priority 2018, dated 2020).

Legend:
Format in all cases: physicochemical
[1] = Relative stability of Form A and Form B slurried in organic/water solvent systems of differing water activity; conditions: mixture of the two forms slurried
Excerpt: If the solvent system has higher than or equal water activity of 0.72, and the two crystalline forms are mixed, the mixture converts to Form A. The solvent systems can be mixture of any organic solvents and organic solvents containing water.
The solvent systems can be mixture of any organic solvents and organic solvents containing water.

[2] = Dynamic Vapour Sorption (DVS) analysis; conditions: for moisture gain observed during the moisture sorption: adsorption cycle 5 to 95% RH; for crystalline form after the DVS analysis (XRPD before/after): sample exposed up to 95% RH and down to 5% RH
Protocol: Dynamic Vapour Sorption (DVS) analysis was carried out using a TA Instruments Q5000 Dynamic Vapor Sorption analyzer. The instrument was calibrated with standard weights and a sodium bromide standard for humidity. Approximately 20 mg of sample was loaded into a metal-coated quartz pan for analysis. The sample was analyzed at 25° C. with a maximum equilibration time of one hour in 10% relative humidity (RH) steps from 5 to 95% RH (adsorption cycle) and from 95 to 5% RH (desorption cycle). The movement from one step to the next occurred either after satisfying the equilibrium criterion of 0.01% weight change or, if the equilibrium criterion was not met, after one hour. The percent weight change values were calculated using Microsoft Excel®. The temperature for the DVS analysis can impact the outcome of the results.

[3] = Stability when milled in the presence of water or stirred (slurried) in water; conditions: milled with water; stirred in water between room temperature and 60° C.
Protocol: Milling was performed using a Retsch Mill. About 20 mg of material was placed into a plastic grinding cup followed by 10 μL of water and a stainless-steel ball. The sample was then milled at 100% power for 20 minutes.
To a plastic grinding cup was added 18.4 mg of Compound A and 10 μL of water. A stainless-steel ball was added. The sample was then milled on a Retsch mill at 100% power for 20 minutes at room temperature.
(§1) To a 20 mL glass vial was added 200.0 mg of Compound A and 3.0 mL of water. A magnetic stir bar was added and the vial was capped. The vial was placed on a heating/stirring plate and the slurry was stirred magnetically for 7 days at ambient temperature. The vial was centrifuged for 10 minutes and the mother liquor was decanted. A dry air purge was directed into the vial for 10 minutes to dry the solid. The vial was then placed in a room temperature vacuum desiccator for 2 hours.
as §1, with “plate set at 60° C.” for “plate”, “3 days.” for “7 days at ambient temperature.”

[4] = DVS, 25° C., desorption cycle 95 to 5% RH

water activity of solvent system at which this form is the more stable of Forms A and B [1]	hygroscopicity based on the DVS data ([2]; DVS, 25° C., 5 to 95% RH)	moisture gain observed during the moisture sorption ([2]; DVS, 25° C.)	moisture loss during the desorption cycle (in words) [2, 4]	crystalline form after the DVS analysis (XRPD before/after) [2]	stability when milled in the presence of water or stirred in water [3]	stability under various humidity conditions ([2]; DVS, 5 to 95% RH)	moisture loss observed during the desorption cycle [2, 4]	SMILES
less than or equal to 0.63	moderately hygroscopic	approximately 6.4%	lost all of the moisture gain	remained unchanged				CSc1nc(N)c2ncn([C@H]3[C@H](O)[C@H](O)[C@]4(CO)C[C@H]34)c2n1 [Form B of compound A]
≥ 0.72	moderately hygroscopic	approximately 9.3%		remained unchanged	stable	stable under various humidity conditions	about 2%	CSc1nc(N)c2ncn([C@H]3[C@H](O)[C@H](O)[C@]4(CO)C[C@H]34)c2n1 [Form A of compound A]
